Reference: patent US10899738B2 (THE REGENTS OF THE UNIVERSITY OF MICHIGAN, priority 2016, dated 2021)

The molecules below were run against menin protein (Homo sapiens (Human), UniProt O00255) (assay: biochemical). Conditions: FP competitive binding; menin protein 4 nM, FAM-MM2 probe 2 nM; read-out: Menin Binding Affinity IC50.
Type: binding
Summary of the method: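 Competitive fluorescence polarization assay using FAM-labelled MLL1 peptide probe FAM-MM2 (2 nM final) preincubated with menin (4 nM final) in PBS with 0.02% bovine γ-globulin, 4% DMSO and 0.01% Triton X-100. Compounds were added and incubated 30 min at room temperature. IC50 came from nonlinear regression of competition curves, with Ki also derived.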

Chain of menin protein (O00255 whole entry): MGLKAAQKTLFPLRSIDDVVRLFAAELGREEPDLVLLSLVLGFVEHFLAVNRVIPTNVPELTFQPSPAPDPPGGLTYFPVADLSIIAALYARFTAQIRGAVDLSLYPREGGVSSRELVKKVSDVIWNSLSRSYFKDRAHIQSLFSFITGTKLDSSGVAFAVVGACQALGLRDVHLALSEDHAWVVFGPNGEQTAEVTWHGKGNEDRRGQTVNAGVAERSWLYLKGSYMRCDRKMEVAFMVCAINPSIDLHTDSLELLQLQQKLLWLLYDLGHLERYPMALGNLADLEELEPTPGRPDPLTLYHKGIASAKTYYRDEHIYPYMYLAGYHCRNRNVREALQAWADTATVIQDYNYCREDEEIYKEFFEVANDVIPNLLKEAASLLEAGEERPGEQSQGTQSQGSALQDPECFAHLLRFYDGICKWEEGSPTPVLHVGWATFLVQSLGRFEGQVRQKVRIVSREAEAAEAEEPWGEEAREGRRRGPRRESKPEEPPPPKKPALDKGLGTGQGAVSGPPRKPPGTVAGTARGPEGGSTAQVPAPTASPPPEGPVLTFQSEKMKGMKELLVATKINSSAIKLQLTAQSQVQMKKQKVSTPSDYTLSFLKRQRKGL

SMILES	IC50 [nM]
c1ccc(CN2CCC(C3(C4CCCC4)NCCc4ccccc43)CC2)cc1 (stereo not shown) [Cpd. No. 71, 1-(1-benzylpiperidin-4-yl)-1-cyclopentyl-1,2,3,4-tetrahydroisoquinoline]	190000
CNC(=O)N[C@@H]1CCC[C@H]1C(CNC(=O)c1cocn1)(c1ccccc1)C1CCN(CC2CN(c3ccc(C#N)cc3)C2)CC1 (mixture of isomers) [compound 379, rac-N-(2-(1-((1-(4-cyanophenyl)azetidin-3-yl)methyl)piperidin-4-yl)-2-((1S,2R)-2-(3-methylureido)cyclopentyl)-2-phenylethyl)oxazole-4-carboxamide]	3800
N#Cc1cc2cc(CCN3CCC(C4(C5CCCC5)NCCc5ccccc54)CC3)ccc2[nH]1 (stereo not shown) [compound 66, 5-(2-(4-(1-cyclopentyl-1,2,3,4-tetrahydroisoquinolin-1-yl)piperidin-1-yl)ethyl)-1H-indole-2-carbonitrile]	1100
CNC(=O)O[C@@H]1CCC[C@H]1C(C#N)(c1ccccc1)C1CCN(CCCOc2ccc(C#N)cc2)CC1 (mixture of isomers) [compound 233, rac-(1R,2S)-2-(cyano(1-(3-(4-cyanophenoxy)propyl)piperidin-4-yl)(phenyl)methyl)cyclopentyl methylcarbamate]	178
CNC(=O)O[C@@H]1CCC[C@H]1C(Cn1ccnc1)(c1ccccc1)C1CCN(CC2CN(c3ccc(C#N)cc3)C2)CC1 (mixture of isomers) [compound 365, rac-(1R,2S)-2-(1-(1-((1-(4-cyanophenyl)azetidin-3-yl)methyl)piperidin-4-yl)-2-(1H-imidazol-1-yl)-1-phenylethyl)cyclopentyl methylcarbamate]	281
O=S(=O)(c1ccncc1)c1ccc(N2CC(CN3CCC(C4(C5CCCC5)CN(Cc5ccncc5)Cc5ccccc54)CC3)C2)cc1 (stereo not shown) [compound 53, 4-cyclopentyl-2-(pyridin-4-ylmethyl)-4-(1-((1-(4-(pyridin-4-ylsulfonyl)phenyl)azetidin-3-yl)methyl)piperidin-4-yl)-1,2,3,4-tetrahydroisoquinoline]	1100
CNC(=O)O[C@@H]1CCC[C@H]1C(C#N)(c1ccccc1)C1CCN(CC2(C)CN(c3ccc(S(=O)(=O)c4cnn(C)c4)cc3)C2)CC1 (mixture of isomers) [compound 371, rac-(1R,2S)-2-(cyano(1-((3-methyl-1-(4-((1-methyl-1H-pyrazol-4-yl)sulfonyl)phenyl)azetidin-3-yl)methyl)piperidin-4-yl)(phenyl)methyl)cyclopentyl methylcarbamate]	2100
O=C(CN1CCC(C2(C3CCCC3)NCCc3ccccc32)CC1)N1Cc2ccccc2C1 (stereo not shown) [compound 82, 2-(4-(1-cyclopentyl-1,2,3,4-tetrahydroisoquinolin-1-yl)piperidin-1-yl)-1-(isoindolin-2-yl)ethan-1-one]	6200
CNC(=O)O[C@@H]1CCC[C@H]1C(Cn1ccnc1C)(c1cccc(F)c1)C1CCN(CC2CN(c3ccc(Cl)cc3)C2)CC1 (mixture of isomers) [compound 414, rac-(1R,2S)-2-(1-(1-((1-(4-chlorophenyl)azetidin-3-yl)methyl)piperidin-4-yl)-1-(3-fluorophenyl)-2-(2-methyl-1H-imidazol-1-yl)ethyl)cyclopentyl methylcarbamate]	539
N#Cc1ccc(OC2CC(N3CCC(C4(C5CCCC5)NCCc5ccccc54)CC3)C2)cc1 (single isomer, unassigned) [compound 131, 4-((1r,3r)-3-(4-(1-cyclopentyl-1,2,3,4-tetrahydroisoquinolin-1-yl)piperidin-1-yl)cyclobutoxy)benzonitrile]	1100
O=C(c1ccn(-c2ccc(S(=O)(=O)C3CC3)cc2)c1)N1CCC(C2(C3CCCC3)NCCc3ccccc32)CC1 (stereo not shown) [compound 122, (4-(1-cyclopentyl-1,2,3,4-tetrahydroisoquinolin-1-yl)piperidin-1-yl)(1-(4-(cyclopropylsulfonyl)phenyl)-1H-pyrrol-3-yl)methanone]	57500
CC(=O)OC[C@H]1CCC[C@@H]1C(C#N)(c1ccccc1)C1CCN(CC2CN(c3ccc(S(=O)(=O)C4CC4)cc3)C2)CC1 (mixture of isomers) [compound 261, rac-((1S,2S)-2-(cyano(1-((1-(4-(cyclopropylsulfonyl)phenyl)azetidin-3-yl)methyl)piperidin-4-yl)(phenyl)methyl)cyclopentyl) methyl acetate]	9300
CNC(=O)N[C@@H]1CCC[C@H]1C(CN)(c1ccccc1)C1CCN(CC2CN(c3ccc(S(=O)(=O)c4ccccc4)cc3)C2)CC1 (mixture of isomers) [compound 322, rac-1-((1R,2S)-2-(2-amino-1-phenyl-1-(1-((1-(4-(phenylsulfonyl)phenyl)azetidin-3-yl)methyl)piperidin-4-yl)ethyl)cyclopentyl)-3-methylurea]	108
CNC(=O)O[C@@H]1CCC[C@H]1C(Cn1ccnc1)(c1ccccc1)C1CCN(CC2CN(c3ccc(S(=O)(=O)c4cnn(C)c4)cc3)C2)CC1 (mixture of isomers) [compound 239, rac-(1R,2S)-2-(2-(1H-imidazol-1-yl)-1-(1-((1-(4-((1-methyl-1H-pyrazol-4-yl)sulfonyl)phenyl)azetidin-3-yl)methyl)piperidin-4-yl)-1-phenethyl)cyclopentyl methylcarbamate]	46
O=S(=O)(c1ccc(N2CC(CN3CCC(C4(C5CCCC5)COCc5ccccc54)CC3)C2)cc1)C1CC1 (stereo not shown) [compound 38, 4-(4-cyclopentylisochroman-4-yl)-1-((1-(4-(cyclopropylsulfonyl)phenyl)azetidin-3-yl)methyl)piperidine]	304
N#Cc1ccc(OCCCN2CCC(C3(C4CCCC4)NCCc4c(F)cccc43)CC2)cc1 (stereo not shown) [compound 29, 4-(3-(4-(1-cyclopentyl-5-fluoro-1,2,3,4-tetrahydroisoquinolin-1-yl)piperidin-1-yl)propoxy)benzonitrile]	91
CC(=O)O[C@H]1CCC[C@@H]1C(C#N)(c1ccccc1)C1CCN(CC2CN(c3ccc(S(C)(=O)=O)cc3)C2)CC1 (mixture of isomers) [compound 183, rac-(1S,2R)-2-(cyano(1-((1-(4-(methylsulfonyl)phenyl)azetidin-3-yl)methyl)piperidin-4-yl)(phenyl)methyl)cyclopentyl acetate]	73
O=S(=O)(c1ccncc1)c1ccc(N2CC(CN3CCC(C4(C5CCCC5)CN(CC5CC5)Cc5ccccc54)CC3)C2)cc1 (stereo not shown) [compound 50, 4-cyclopentyl-2-(cyclopropylmethyl)-4-(1-((1-(4-(pyridin-4-ylsulfonyl)phenyl)azetidin-3-yl)methyl)piperidin-4-yl)-1,2,3,4-tetrahydroisoquinoline]	7
CC(=O)O[C@@H]1CCC[C@H]1C(C#N)(c1ccccc1)C1CCN(CC2CN(c3ccc(S(=O)(=O)c4ccnc(C)c4)cc3)C2)CC1 (mixture of isomers) [compound 200, rac-(1R,2S)-2-(cyano(1-((1-(4-((2-methylpyridin-4-yl)sulfonyl)phenyl)azetidin-3-yl)methyl)piperidin-4-yl)(phenyl)methyl)cyclopentyl acetate]	17
CCNC(=O)O[C@@H]1CCC[C@H]1C(C#N)(c1ccccc1)C1CCN(CC2CN(c3ccc(S(=O)(=O)c4ccncc4)cc3)C2)CC1 (mixture of isomers) [compound 214, rac-(1R,2S)-2-(cyano(phenyl)(1-((1-(4-(pyridin-4-ylsulfonyl)phenyl)azetidin-3-yl)methyl)piperidin-4-yl)methyl)cyclopentyl ethylcarbamate]	3400
CC(=O)O[C@@H]1CCC[C@H]1C(C#N)(c1cccc(C(F)(F)F)c1)C1CCN(CC2CN(c3ccc(C#N)cc3)C2)CC1 (mixture of isomers) [compound 418, rac-(1R,2S)-2-(cyano(1-((1-(4-cyanophenyl)azetidin-3-yl)methyl)piperidin-4-yl)(3-(trifluoromethyl)phenyl)methyl)cyclopentyl acetate]	923000
c1ccc(OCCCN2CCC(C3(C4CCCC4)NCCc4ccccc43)CC2)cc1 (stereo not shown) [compound 76, 1-cyclopentyl-1-(1-(3-phenoxypropyl)piperidin-4-yl)-1,2,3,4-tetrahydroisoquinoline]	1300
CCC(CC)CC1(C2CCN(CCCOc3ccc(C#N)cc3)CC2)NCCc2ccccc21 (stereo not shown) [compound 252, 4-(3-(4-(1-(2-ethylbutyl)-1,2,3,4-tetrahydroisoquinolin-1-yl)piperidin-1-yl)propoxy)benzonitrile]	1200
N#Cc1ccc(OCCN2CCC(CC3(C4CCCC4)NCCc4ccccc43)CC2)cc1 (stereo not shown) [compound 105, 4-(2-(4-((1-cyclopentyl-1,2,3,4-tetrahydroisoquinolin-1-yl)methyl)piperidin-1-yl)ethoxy)benzonitrile]	20200
CC(=O)O[C@@H]1CCC[C@H]1C(C#N)(c1ccccc1)C1CCN(CC2CN(c3ccc(C(=O)O)cc3)C2)CC1 (mixture of isomers) [compound 389, rac-4-(3-((4-(((1S,2R)-2-acetoxycyclopentyl)(cyano) (phenyl)methyl)piperidin-1-yl)methyl)azetidin-1-yl)benzoic acid]	6500
N#Cc1cc2cc(CN3CCC(C4(C5CCCC5)NCCc5ccccc54)CC3)ccc2[nH]1 (stereo not shown) [compound 114, 5-((4-(1-cyclopentyl-1,2,3,4-tetrahydroisoquinolin-1-yl)piperidin-1-yl)methyl)-1H-indol-2-carbonitrile]	32600
CSC[C@@H]1CCC[C@H]1C(C#N)(c1ccccc1)C1CCN(CC2CN(c3ccc(S(=O)(=O)c4ccncc4)cc3)C2)CC1 (mixture of isomers) [compound 260, rac-2-((1R,2R)-2-((methylthio)methyl)cyclopentyl)-2-phenyl-2-(1-((1-(4-(pyridin-4-ylsulfonyl)phenyl)azetidin-3-yl)methyl)piperidin-4-yl)acetonitrile]	17000
CO[C@@H]1CCC[C@H]1C(C#N)(c1ccccc1)C1CCN(CC2CN(c3ccc(S(C)(=O)=O)cc3)C2)CC1 (mixture of isomers) [compound 180, rac-2-((1S,2R)-2-methoxycyclopentyl)-2-(1-((1-(4-(methylsulfonyl)phenyl)azetidin-3-yl)methyl)piperidin-4-yl)-2-phenylacetonitrile]	9700
